This assay has as its target T1, human CXCR3 (N-delta 4) (Homo sapiens, UniProt P49682).
T1 construct: CD8 leader (N); Flag; expressed in transfected cells; membranes prepared
T1 sequence (P49682 5-368 limits assumed): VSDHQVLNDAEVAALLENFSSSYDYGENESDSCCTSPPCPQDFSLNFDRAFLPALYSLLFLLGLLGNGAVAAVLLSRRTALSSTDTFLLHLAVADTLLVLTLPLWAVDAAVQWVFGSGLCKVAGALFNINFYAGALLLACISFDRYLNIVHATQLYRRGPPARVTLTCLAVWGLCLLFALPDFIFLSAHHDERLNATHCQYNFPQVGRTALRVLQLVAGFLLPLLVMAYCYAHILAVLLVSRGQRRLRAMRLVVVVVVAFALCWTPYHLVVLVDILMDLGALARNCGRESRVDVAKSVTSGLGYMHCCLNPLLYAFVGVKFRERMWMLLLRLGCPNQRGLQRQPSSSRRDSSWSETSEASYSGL
In words: Human CXCR3 (N-delta 4) Scintillation Proximity Assay (SPA), [125I] IP-10 binding to Ba/F3-hCXCR3 membranes. The conditions noted are these: IC50 rating, Table 1; read-out: IC50. (SPA uses beads or plates that emit light when radiolabelled molecules are held near them.)
Turning to `CC[C@H]1CN(c2nc(N)c(C(=O)N[C@H]3CCN(C)C3=O)nc2Cl)CCN1C1CCN(Cc2ccc(C#N)cc2)CC1` [compound 211], the concentration for half-maximal inhibition (IC50) (usually the midpoint of a concentration-inhibition curve) is > 100 nM.
`CC[C@H]1CN(c2nc(N)c(C(=O)NCc3cc(O)no3)nc2Cl)CCN1C1CCN(Cc2ccc(Cl)cc2)CC1` [compound 212]: the half-maximal inhibitory concentration (IC50) is > 100 nM.
With `CC[C@H]1CN(c2nc(N)c(C(=O)NCC(N)=O)nc2Cl)CCN1C1CCN(Cc2ccc(Cl)cc2)CC1` [compound 213], the 50% inhibitory concentration (IC50) lay in the range of 25 to 100 nM.
In the case of `CC[C@H]1CN(c2nc(N)c(C(=O)NCC(=O)OC)nc2Cl)CCN1C1CCN(Cc2ccc(Cl)cc2)CC1` [compound 214] it was < 25 nM; in that of `CC[C@H]1CN(c2nc(N)c(C(=O)NCC(F)(F)F)nc2Cl)CCN1C1CCN(Cc2ccc(Cl)cc2)CC1` [compound 216], < 25 nM; in that of `CC[C@H]1CN(c2nc(N)c(C(=O)NCC(C)O)nc2Cl)CCN1C1CCN(Cc2ccc(Cl)cc2)CC1` (stereo partly drawn) [compound 217], < 25 nM.
Consider `CC[C@H]1CN(c2nc(N)c(C(=O)NC[C@@H](C)O)nc2Cl)CCN1C1CCN(Cc2ccc(Cl)cc2[C@H](O)C(N)=O)CC1` [compound 218], for which the IC50 was < 25 nM.
Next, `CC[C@H]1CN(c2nc(N)c(C(=O)NC[C@@H](C)O)nc2Cl)CCN1C1CCN(Cc2ccc(Cl)cc2C(O)C(=O)OC)CC1` (stereo partly drawn) [compound 219]: < 25 nM.
Regarding `CC[C@H]1CN(c2nc(N)c(C(=O)NC[C@@H](C)O)nc2Cl)CCN1C1CCN(Cc2ccc(Cl)cc2CC#N)CC1` [compound 220], the IC50 is < 25 nM.
As for `CC[C@H]1CN(c2nc(N)c(C(=O)NC[C@@H](C)O)nc2Cl)CCN1C1CCN(Cc2ccc(C#N)cc2)CC1` [compound 221], the half-inhibitory concentration (IC50) was < 25 nM.
Consider `CC[C@H]1CN(c2nc(N)c(C(=O)NC[C@@H](C)O)nc2Cl)CCN1C1CCN(Cc2ccc(Cl)cc2[C@@H](O)C(N)=O)CC1` [compound 222], for which the IC50 is < 25 nM.
Next, `CC[C@H]1CN(c2nc(N)c(C(=O)NC[C@@H](C)O)nc2Cl)CCN1C1CCN(Cc2ccc(Cl)cc2CCNS(C)(=O)=O)CC1` [compound 223]: < 25 nM; `CC[C@H]1CN(c2nc(N)c(C(=O)NC[C@@H](C)O)nc2Cl)CCN1C1CCN(Cc2ccc(Cl)cc2CCNC(C)=O)CC1` [compound 224]: 25 to 100 nM; `CC[C@H]1CN(c2nc(N)c(C(=O)NCCCNS(=O)(=O)C(F)(F)F)nc2Cl)CCN1C1CCN(Cc2ccc(C#N)cc2)CC1` [compound 225]: > 100 nM.
Next, `CC[C@H]1CN(c2nc(N)c(C(=O)NCCCNS(C)(=O)=O)nc2Cl)CCN1C1CCN(Cc2ccc(C#N)cc2)CC1` [compound 226]: > 100 nM; `CC[C@H]1CN(c2nc(N)c(C(=O)NCCCO)nc2Cl)CCN1C1CCN(Cc2ccc(Cl)cc2)CC1` [compound 227]: 25 to 100 nM.
For `CC[C@H]1CN(c2nc(N)c(C(=O)NCCC#N)nc2Cl)CCN1C1CCN(Cc2ccc(C#N)cc2)CC1` [compound 228], the half-inhibitory concentration (IC50) is < 25 nM.
As to `CC[C@H]1CN(c2nc(N)c(C(=O)NCCNc3ncccn3)nc2Cl)CCN1C1CCN(Cc2ccc(Cl)cc2)CC1` [compound 229], the IC50 is < 25 nM.
Consider `CC[C@H]1CN(c2nc(N)c(C(=O)NCCNC(C)=O)nc2Cl)CCN1C1CCN(Cc2ccc(Cl)cc2)CC1` [compound 230], for which the IC50 was < 25 nM.
For `CC[C@H]1CN(c2nc(N)c(C(=O)NCCNC(N)=O)nc2Cl)CCN1C1CCN(C(CO)c2ccc(Cl)cc2)CC1` (stereo partly drawn) [compound 231], the IC50 is < 25 nM.
In the case of `CC[C@H]1CN(c2nc(N)c(C(=O)NCCNC(N)=O)nc2Cl)CCN1C1CCN(C(CO)c2ccc(C#N)cc2)CC1` (stereo partly drawn) [compound 232] it was 25 to 100 nM.
Take `CC[C@H]1CN(c2nc(N)c(C(=O)NCCN)nc2Cl)CCN1C1CCN(Cc2ccc(Cl)cc2)CC1` [compound 233]: the IC50 was < 25 nM.
With `CC[C@H]1CN(c2nc(N)c(C(=O)NCCN)nc2Cl)CCN1C1CCN(Cc2ccc(Cl)cc2C#N)CC1` [compound 234], the concentration for half-maximal inhibition (IC50) fell in the range of 25 to 100 nM.
On to `CC[C@H]1CN(c2nc(N)c(C(=O)NCCNC(=O)OC(C)(C)C)nc2Cl)CCN1C1CCN(Cc2ccc(Cl)cc2C#N)CC1` [compound 235], for which the IC50 was > 100 nM.
Turning to `CC[C@H]1CN(c2nc(N)c(C(=O)NCCN/C(N)=N/C#N)nc2Cl)CCN1C1CCN(Cc2ccc(Cl)cc2C#N)CC1` [compound 236], the IC50 was > 100 nM.
Turning to `CC[C@H]1CN(c2nc(N)c(C(=O)NCCNS(=O)(=O)c3cn(C)cn3)nc2Cl)CCN1C1CCN(Cc2ccc(C#N)cc2)CC1` [compound 237], the half-inhibitory concentration (IC50) was > 100 nM.
In the case of `CC[C@H]1CN(c2nc(N)c(C(=O)NCCNS(=O)(=O)C(F)(F)F)nc2Cl)CCN1C1CCN(Cc2ccc(Cl)cc2)CC1` [compound 238] it was < 25 nM; in that of `CC[C@H]1CN(c2nc(N)c(C(=O)NCCNS(=O)(=O)C(F)(F)F)nc2Cl)CCN1C1CCN(Cc2ccc(C#N)cc2)CC1` [compound 239], < 25 nM.
In the case of `CC[C@H]1CN(c2nc(N)c(C(=O)NCCNS(=O)(=O)C(F)(F)F)nc2Cl)CCN1C1CCN(Cc2ccc(F)c(F)c2N2CC[C@@H](O)C2)CC1` [compound 240], the IC50 was < 25 nM.
Regarding `CC[C@H]1CN(c2nc(N)c(C(=O)NCCNS(=O)(=O)C(F)(F)F)nc2Cl)CCN1C1CCN(Cc2ccc(Cl)cc2N2CC[C@@H](O)C2)CC1` [compound 241], the half-maximal inhibitory concentration (IC50) is < 25 nM.
For `CC[C@H]1CN(c2nc(N)c(C(=O)NCCNS(=O)(=O)CC)nc2Cl)CCN1C1CCN(Cc2ccc(C#N)cc2)CC1` [compound 242], the half-maximal inhibitory concentration (IC50) lay within 25 to 100 nM.
In the case of `CC[C@H]1CN(c2nc(N)c(C(=O)NCCNS(C)(=O)=O)nc2Cl)CCN1C1CCN(Cc2ccc(Cl)cc2C(=N)N)CC1` [compound 243] it was < 25 nM; in that of `CC[C@H]1CN(c2nc(N)c(C(=O)NCCNS(C)(=O)=O)nc2Cl)CCN1C1CCN([C@@H](CO)c2ccc(Cl)cc2)CC1` [compound 244], < 25 nM.
`CC[C@H]1CN(c2nc(N)c(C(=O)NCCNS(C)(=O)=O)nc2Cl)CCN1C1CCN(Cc2ccc(Cl)cc2)CC1` [compound 245]: the 50% inhibitory concentration (IC50) was < 25 nM.
In the case of `CCOC(=O)/N=C(\N)c1cc(Cl)ccc1CN1CCC(N2CCN(c3nc(N)c(C(=O)NCCNS(C)(=O)=O)nc3Cl)C[C@@H]2CC)CC1` [compound 246] it was < 25 nM; in that of `CC[C@H]1CN(c2nc(N)c(C(=O)NCCNS(C)(=O)=O)nc2Cl)CCN1C1CCN(Cc2ccc(C#N)cc2)CC1` [compound 247], 25 to 100 nM.
With `CC[C@H]1CN(c2nc(N)c(C(=O)NCCNS(C)(=O)=O)nc2Cl)CCN1C1CCN(Cc2ccc(Cl)cc2N2CC[C@@H](O)C2)CC1` [compound 248], the IC50 lay within 25 to 100 nM.
Consider `CC[C@H]1CN(c2nc(N)c(C(=O)NCCNS(C)(=O)=O)nc2Cl)CCN1C1CCN([C@H](CO)c2ccc(Cl)cc2)CC1` [compound 249], for which the half-maximal inhibitory concentration (IC50) fell in the range of 25 to 100 nM.
Turning to `CC[C@H]1CN(c2nc(N)c(C(=O)NCCNS(C)(=O)=O)nc2Cl)CCN1C1CCN([C@@H](C(=O)OC)c2ccc(Cl)cc2)CC1` [compound 250], the IC50 was 25 to 100 nM.
Next, `CC[C@H]1CN(c2nc(N)c(C(=O)NCCNS(C)(=O)=O)nc2Cl)CCN1C1CCN([C@H](C(=O)OC)c2ccc(Cl)cc2)CC1` [compound 251]: > 100 nM; `CC[C@H]1CN(c2nc(N)c(C(=O)NCCNS(C)(=O)=O)nc2Cl)CCN1C1CCN(Cc2ccc(F)c(F)c2N2CC[C@@H](O)C2)CC1` [compound 252]: 25 to 100 nM; `CC[C@H]1CN(c2nc(N)c(C(=O)NCCNS(C)(=O)=O)nc2Cl)CCN1C1CCN(Cc2ccc(Cl)cc2C#N)CC1` [compound 253]: 25 to 100 nM.
In the case of `CC[C@H]1CN(c2nc(N)c(C(=O)NCCNS(C)(=O)=O)nc2Cl)CCN1C1CCN(Cc2ccc(Cl)cc2C(=N)NC)CC1` [compound 254] it was 25 to 100 nM.
`CC[C@H]1CN(c2nc(N)c(C(=O)NCCNS(=O)(=O)N(C)C)nc2Cl)CCN1C1CCN(Cc2ccc(C#N)cc2)CC1` [compound 255]: the IC50 lay in the range of 25 to 100 nM.
As to `CC[C@H]1CN(c2nc(NCc3ccc(F)c(F)c3)c(C(=O)NCCNS(N)(=O)=O)nc2Cl)CCN1C1CCN(Cc2ccc(F)c(F)c2)CC1` [compound 256], the half-inhibitory concentration (IC50) is < 25 nM.
`CC[C@H]1CN(c2nc(N)c(C(=O)NCCNS(N)(=O)=O)nc2Cl)CCN1C1CCN([C@@H](CO)c2ccc(Cl)cc2)CC1` [compound 257]: the concentration for half-maximal inhibition (IC50) is < 25 nM.
For `CC[C@H]1CN(c2nc(N)c(C(=O)NCCNS(N)(=O)=O)nc2Cl)CCN1C1CCN(Cc2ccc(Cl)cc2C(=N)N)CC1` [compound 258], the IC50 was < 25 nM.
In the case of `CC[C@H]1CN(c2nc(N)c(C(=O)NCCNS(N)(=O)=O)nc2Cl)CCN1C1CCN(C(CO)c2ccc(Cl)cc2)CC1` (stereo partly drawn) [compound 259] it was < 25 nM; in that of `CC[C@H]1CN(c2nc(N)c(C(=O)NCCNS(N)(=O)=O)nc2Cl)CCN1C1CCN(Cc2ccc(Cl)cc2C(=N)NC)CC1` [compound 260], < 25 nM.
For `CC[C@H]1CN(c2nc(N)c(C(=O)NCCNS(N)(=O)=O)nc2Cl)CCN1C1CCN([C@@H](C(=O)OC)c2ccc(Cl)cc2)CC1` [compound 261], the half-maximal inhibitory concentration (IC50) fell in the range of 25 to 100 nM.
Regarding `CC[C@H]1CN(c2nc(N)c(C(=O)NCCNS(N)(=O)=O)nc2Cl)CCN1C1CCN([C@H](CO)c2ccc(Cl)cc2)CC1` [compound 262], the IC50 was > 100 nM.
In the case of `CC[C@H]1CN(c2nc(N)c(C(=O)NCCNS(N)(=O)=O)nc2Cl)CCN1C1CCN(C(C(=O)OC)c2ccc(Cl)cc2)CC1` (stereo partly drawn) [compound 263] it was > 100 nM; in that of `CC[C@H]1CN(c2nc(N)c(C(=O)NCCNS(N)(=O)=O)nc2Cl)CCN1C1CCN(Cc2ccc(Cl)cc2)CC1` [compound 264], < 25 nM.
Next, `CC[C@H]1CN(c2nc(N)c(C(=O)NCCNS(N)(=O)=O)nc2Cl)CCN1C1CCN(Cc2ccc(F)c(F)c2)CC1` [compound 265]: < 25 nM.
